This note sets out measurements from patent US20230312524A1, “ALPHA1A-ADRENERGIC RECEPTOR AGONISTS AND METHODS OF USE” (CuraSen Therapeutics, Inc., priority 2020, published 2023).

Like-named read-outs stand apart in the source and are kept apart here.

The target in this experiment is T1, α1A-ARS (Homo sapiens, UniProt P35348).
T1 sequence (P35348 1-466): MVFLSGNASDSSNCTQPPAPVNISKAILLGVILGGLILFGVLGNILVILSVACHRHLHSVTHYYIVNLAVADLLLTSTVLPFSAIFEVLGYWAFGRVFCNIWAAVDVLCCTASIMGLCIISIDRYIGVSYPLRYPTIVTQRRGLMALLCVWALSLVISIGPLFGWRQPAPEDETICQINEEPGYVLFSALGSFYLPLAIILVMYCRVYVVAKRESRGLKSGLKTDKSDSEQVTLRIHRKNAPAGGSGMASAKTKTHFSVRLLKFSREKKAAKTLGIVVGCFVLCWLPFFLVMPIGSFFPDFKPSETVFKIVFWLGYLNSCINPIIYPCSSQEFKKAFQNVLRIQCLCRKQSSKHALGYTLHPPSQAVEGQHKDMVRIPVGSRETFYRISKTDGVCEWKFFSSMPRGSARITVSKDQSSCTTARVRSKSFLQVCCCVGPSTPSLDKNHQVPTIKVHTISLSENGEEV
Put plainly: Calcium flux assay (Calcium 6 dye) in cells expressing an α1-AR. It is filed as cell-based. The note with it: for Emax: read-out: Average Emax; for EC50: mean of at least three experiments, read-out: Average PEC50. The text has this: Calcium flux experimental design: alpha-1 adrenergic receptors (α1-ARs) couple to Gq proteins, which results in downstream activation of phospholipase C and release of calcium from intracellular stores. Intracellular calcium increase upon α1-AR activation can be detected by Calcium 6 dye.
Cell preparation: cells expressing an α1-AR were washed in warmed phosphate-buffered saline to remove medium and harvested using versene (Caisson Labs, catalog #EDL01).
Media was removed from cells by tapping plates upside-down on absorbent wipes, followed by 15 second upside-down 50×g centrifugation, again on absorbent wipes. 12 μL cell dye solution was added to cells using a reagent dispenser (Integra viaFILL) and cells were incubated for 90 minutes at 37° C., 5% CO2.
Compound preparation: candidate alpha-adrenergic compounds, dissolved to 10 mM in DMSO, were diluted in_assay buffer (HBSS/H-EPES containing 2 mM CaCl2 and 2 mM probenecid sodium salt). […] On all assay plates, vehicle (DMSO) and positive control (10 μM epinephrine) conditions were included on the plate, as well as a dose-response curve of epinephrine. […] 384 well compound plates were centrifuged briefly at 250×g, sealed (Axygen PCR-SP) and incubated at 37° C. until the 90 minute cell dye incubation was complete.
Calcium 6 stained cells and 384 well compound plates were loaded onto the Flexstation and incubated on the machine for 5 minutes before initiating the assay.
For each assay well, baseline Calcium 6 fluorescence was detected for 18 seconds prior to 12 μL compound addition at 12 μL per second. Changes in Calcium 6 fluorescence were detected for a further 22 seconds, for a total read time of 40 seconds. All detection was performed with medium gain sensitivity, bottom read, with 6 flashes per read.
Data analysis: for calcium flux, analysis of maximum change from baseline over the 40-second read time was determined using Softmax Pro and data was exported as raw text files. Potency estimates (EC50) were derived from dose response curves (maximum change from baseline versus the log concentration of test compound) fit by four-parameter nonlinear regression using Graphpad Prism. Efficacy was determined by comparing the magnitude of the test compound signal window (fitted curve max−min) with the signal window of the full agonist control, epinephrine. […] All experiments were repeated a minimum of three times, with the average (mean) potency and maximum effect relative to the within-plate full agonist dose-response comparator reported.

[1] abbreviates: calcium flux, α1A-AR, maximum effect relative to full agonist epinephrine.

In the case of `Cc1c(CC2=NCCN2)cccc1-c1ncco1` [Compound 5], the Emax under setting [1] fell in the range of 21 to 60%. Also, the EC50 (calcium flux, α1A-AR) fell in the range of 10 to 977 nM.
For `Cc1c(CC2=NCCN2)ccc(S(=O)(=O)CF)c1Cl` [Compound 140], the Emax under setting [1] was over 61%. For the same compound, the EC50 (calcium flux, α1A-AR) was over 1000 nM.
The matching figures for `Clc1ccc(CC2=NCCN2)c(-n2cccn2)c1` [Compound 21]: over 61% and 10 to 977 nM.
`C[C@@H](O)c1cc(Cl)ccc1CC1=NCCN1` [Compound 146]: the Emax under setting [1] is under 20%. Besides, the EC50 (calcium flux, α1A-AR) was over 1000 nM.
For the compound `CCc1cc(C(F)(F)F)ccc1CC1=NCCN1` [Compound 78], the Emax is over 61%. In addition, the EC50 (calcium flux, α1A-AR) was under 9.77 nM.
In the case of `Clc1ccc(CC2=NCCN2)c(-c2cccs2)c1` [Compound 28], the Emax under setting [1] was over 61%. Further, the EC50 (calcium flux, α1A-AR) is under 9.77 nM.
`FC(F)(F)c1ccc(CC2=NCCN2)c(C2CCCCC2)c1` [Compound 96]: under setting [1], the Emax was in the range of 21 to 60%. Further, the EC50 (calcium flux, α1A-AR) was over 1000 nM.
As for `Cc1c(CC2=NCCN2)ccc2c1CCO2` [Compound 58], the Emax is 21 to 60%. For the same compound, under “calcium flux, α1A-AR”, the EC50 was in the range of 10 to 977 nM.
For `c1cc2c(cc1CC1=NCCN1)NCC21CC1` [Compound 46], the Emax under setting [1] lay within 21 to 60%. Moreover, the EC50 (calcium flux, α1A-AR) is 10 to 977 nM.
Take `CC(C)C(F)(F)c1cc(Cl)ccc1CC1=NCCN1` [Compound 117]: the Emax lay within 21 to 60%. In addition, where the note is “calcium flux, α1A-AR”, the EC50 is 10 to 977 nM.
For `COc1ccc(CC2=NCCN2)c(C(F)(F)F)c1` [Compound 81], the Emax is over 61%. The EC50 (calcium flux, α1A-AR) is 10 to 977 nM.
For `Cc1cc(CC2=NCCN2)cc(OC(F)F)c1` [Compound 148], the Emax was over 61%. Besides, the EC50 (calcium flux, α1A-AR) is 10 to 977 nM.
For `Clc1ccc(CC2=NCCN2)c(Cc2ccccc2)c1` [Compound 120], the Emax under setting [1] was under 20%. In addition, for the setting “calcium flux, α1A-AR”, the EC50 is over 1000 nM.
For `CN(CC(F)(F)F)c1cc(C(F)(F)F)ccc1CC1=NCCN1` [Compound 97] the same measures were under 20% and over 1000 nM.
The matching figures for `Clc1ccc(CC2=NCCN2)c(-c2ccccc2)c1` [Compound 74]: over 61% and 10 to 977 nM.
On to `C[C@@H](F)c1cc(Cl)ccc1CC1=NCCN1` [Compound 142], for which the Emax is 21 to 60%. Also, the EC50 (calcium flux, α1A-AR) lay within 10 to 977 nM.
Take `Clc1ccc(CC2=NCCN2)c(-c2ccon2)c1` [Compound 104]: under setting [1], the Emax was over 61%. Also, where the note is “calcium flux, α1A-AR”, the EC50 fell in the range of 10 to 977 nM.
For the compound `Cc1c(CC2=NCCN2)cccc1-n1cccn1` [Compound 22], the Emax under setting [1] was in the range of 21 to 60%. Also, the EC50 (calcium flux, α1A-AR) lay within 10 to 977 nM.
For the compound `FC(F)Oc1ccc(CC2=NCCN2)c(Cl)c1` [Compound 136], the Emax was 21 to 60%. Also, the EC50 (calcium flux, α1A-AR) fell in the range of 10 to 977 nM.
For `Cc1coc2c(Cl)cc(CC3=NCCN3)c(C)c12` [Compound 107] the same measures were 21 to 60% and under 9.77 nM.
The matching figures for `FC(F)(F)Cc1cc(Cl)ccc1CC1=NCCN1` [Compound 90]: 21 to 60% and over 1000 nM.
With `Cc1cc(Cl)ccc1CC1=NCCN1` [Compound 38], the Emax lay within 21 to 60%. Also, the EC50 (calcium flux, α1A-AR) fell in the range of 10 to 977 nM.
Take `Cc1c(CC2=NCCN2)ccc2occc12` [Compound 54]: the Emax was in the range of 21 to 60%. Further, the EC50 (calcium flux, α1A-AR) is 10 to 977 nM.
Take `FC(F)(F)c1ccccc1CC1=NCCN1` [Compound 154]: the Emax was in the range of 21 to 60%. The EC50 (calcium flux, α1A-AR) is over 1000 nM.
As to `Fc1ccc(CC2=NCCN2)c(-c2ccccc2)c1` [Compound 79], the Emax under setting [1] is over 61%. Besides, the EC50 (calcium flux, α1A-AR) is under 9.77 nM.
Turning to `CCc1cc(Cl)ccc1CC1=NCCN1` [Compound 67], the Emax is over 61%. For the same compound, the EC50 (calcium flux, α1A-AR) was 10 to 977 nM.
Turning to `CCc1cc(S(C)(=O)=O)ccc1CC1=NCCN1` [Compound 113], under setting [1], the Emax was over 61%. Further, the EC50 (calcium flux, α1A-AR) was in the range of 10 to 977 nM.
Take `FCc1cc(Cl)ccc1CC1=NCCN1` [Compound 76]: the Emax was 21 to 60%. The EC50 (calcium flux, α1A-AR) lay within 10 to 977 nM.
Take `FC(F)Oc1cc(Cl)ccc1CC1=NCCN1` [Compound 114]: the Emax was 21 to 60%. Besides, the EC50 (calcium flux, α1A-AR) fell in the range of 10 to 977 nM.
On to `FC(F)c1ccc(CC2=NCCN2)c(Cl)c1` [Compound 138], for which the Emax was over 61%. Besides, for the setting “calcium flux, α1A-AR”, the EC50 fell in the range of 10 to 977 nM.
Regarding `Clc1ccc(CC2=NCCN2)cc1` [Compound 152], the maximum response (Emax) was under 20%. The EC50 (calcium flux, α1A-AR) is over 1000 nM.
`COCc1cc(Cl)ccc1CC1=NCCN1` [Compound 124]: the Emax under setting [1] fell in the range of 21 to 60%. Also, under “calcium flux, α1A-AR”, the EC50 lay in the range of 10 to 977 nM.
On to `Cc1coc2c(CC3=NCCN3)cccc12` [Compound 60], for which the Emax lay within 21 to 60%. Besides, the EC50 (calcium flux, α1A-AR) was 10 to 977 nM.
For the compound `Cc1c(CC2=NCCN2)cc(Cl)c2nn(C)cc12` [Compound 106], the Emax was in the range of 21 to 60%. Also, for the setting “calcium flux, α1A-AR”, the EC50 lay in the range of 10 to 977 nM.
For `Clc1cn(C2CC2)c2cc(CC3=NCCN3)ccc12` [Compound 63], the Emax fell in the range of 21 to 60%. The EC50 (calcium flux, α1A-AR) was 10 to 977 nM.
As to `Cc1cc(-c2cc(Cl)ccc2CC2=NCCN2)sn1` [Compound 37], the Emax under setting [1] fell in the range of 21 to 60%. Further, for the setting “calcium flux, α1A-AR”, the EC50 lay in the range of 10 to 977 nM.
Take `Cc1oc2c(CC3=NCCN3)cccc2c1C` [Compound 45]: the Emax is over 61%. Moreover, under “calcium flux, α1A-AR”, the EC50 lay in the range of 10 to 977 nM.
In the case of `Clc1ccccc1CC1=NCCN1` [Compound 153], the Emax was under 20%. Further, for the setting “calcium flux, α1A-AR”, the EC50 lay within 10 to 977 nM.
As for `CC(F)(F)c1ccc(CC2=NCCN2)c(Cl)c1` [Compound 157], the maximal effect (Emax) was over 61%. Moreover, the EC50 (calcium flux, α1A-AR) was in the range of 10 to 977 nM.
`Clc1cn(-c2cn[nH]c2)c2cc(CC3=NCCN3)ccc12` [Compound 62]: under setting [1], the Emax is under 20%. The EC50 (calcium flux, α1A-AR) is over 1000 nM.
Consider `CCc1c(CC2=NCCN2)ccc(S(C)(=O)=O)c1Cl` [Compound 144], for which, under setting [1], the Emax was in the range of 21 to 60%. For the same compound, the EC50 (calcium flux, α1A-AR) is over 1000 nM.
As for `Cc1c(CC2=NCCN2)ccc2cc[nH]c12` [Compound 61], the Emax was under 20%. Besides, the EC50 (calcium flux, α1A-AR) lay within 10 to 977 nM.
In the case of `FC(F)(F)c1ccc(CC2=NCCN2)c(C2CC2)c1` [Compound 77], the Emax was over 61%. Moreover, for the setting “calcium flux, α1A-AR”, the EC50 was 10 to 977 nM.
In the case of `FC(F)(F)Oc1ccc(Cl)c(CC2=NCCN2)c1` [Compound 167], the Emax was over 61%. The EC50 (calcium flux, α1A-AR) was in the range of 10 to 977 nM.
The matching figures for `Cc1cc(Cl)cc(Cl)c1CC1=NCCN1` [Compound 125]: over 61% and 10 to 977 nM.
As for `Clc1ccc(CC2=NCCN2)c(-n2cccc2)c1` [Compound 91], under setting [1], the Emax was over 61%. Under “calcium flux, α1A-AR”, the EC50 was 10 to 977 nM.
Turning to `CC(C)Oc1cc(Cl)ccc1CC1=NCCN1` [Compound 102], the Emax is 21 to 60%. Also, the EC50 (calcium flux, α1A-AR) is 10 to 977 nM.
Turning to `Clc1ccc(CC2=NCCN2)cc1-c1ncco1` [Compound 10], the Emax under setting [1] was 21 to 60%. For the same compound, the EC50 (calcium flux, α1A-AR) was in the range of 10 to 977 nM.
Consider `FC(F)(F)c1ccc(CC2=NCCN2)c(-n2cccn2)c1` [Compound 93], for which the maximum response (Emax) under setting [1] was over 61%. The EC50 (calcium flux, α1A-AR) is 10 to 977 nM.
Consider `Cc1cccn1-c1cc(Cl)ccc1CC1=NCCN1` [Compound 116], for which the Emax under setting [1] was over 61%. Besides, for the setting “calcium flux, α1A-AR”, the EC50 fell in the range of 10 to 977 nM.
The matching figures for `Clc1ccc(CC2=NCCN2)c(-c2ccncn2)c1` [Compound 34]: 21 to 60% and over 1000 nM.
As for `FC(F)(F)Oc1cccc(CC2=NCCN2)c1Cl` [Compound 166], the Emax lay within 21 to 60%. The EC50 (calcium flux, α1A-AR) is 10 to 977 nM.
